According to US4339461A, “N-Substituted 3-nitro-benzylamines” (Chevron Research Company, priority 1980, dated 1982):

Legend:
malaria = conditions: disclosed by Burkhalter et al, 1948; cited from earlier work
fungi = assay: Fungicidal activity overall (tests of Examples 1 and 2, Table I); format: in vivo
[1] = test system: Powdery mildew pathogen, Erysiphe polygoni; assay: Fungicidal efficacy, control of Bean Powdery Mildew on sprayed bean seedlings; format: in vivo; conditions: for Fungicidal Efficacy - % Control, BPM (Bean Powdery Mildew): 250 ppm spray, inoculated one day later, about 10 days; for fungicidal activity on Bean Powdery Mildew (in words): Table I test
Excerpt: The powdery mildew test was made using bean seedlings (variety Bountiful) with well-developed primary leaves. The pathogen was Erysiphe polygoni. […] The treated plants were inoculated one day after spray application of the test compound with the pathogen. […] The rate of infection on the leaves was made after about 10 days. The percent disease control provided by a given test compound was based on the disease reduction relative to untreated check plants. The results are reported in Table I. The test was repeated on Compound No. 1.

[2] = test system: Tomato Early Blight organism, Alternaria solani; assay: Fungicidal efficacy, control of Tomato Early Blight on sprayed tomato seedlings; format: in vivo; conditions: for Fungicidal Efficacy - % Control, TEB (Tomato Early Blight): 250 ppm spray, about 12 days; for fungicidal activity on Tomato Early Blight (in words): Table I test
[3] = test system: Tomato Late Blight, Phytophthora infestans; format: in vivo; conditions: 250 ppm spray; inoculated one day later; about 12 days

SMILES | antimalarial activity (in words) (malaria) | fungicidal activity (in words) (fungi) | Fungicidal Efficacy - % Control, BPM (Bean Powdery Mildew) [1] [%] | Fungicidal Efficacy - % Control, TEB (Tomato Early Blight) [2] [%] | further results
CCN(CC)Cc1ccc([N+](=O)[O-])cc1 [N,N-diethyl-4-nitro-benzylamine] | antimalarial activity | – | – | – | –
CCCN(CCC)Cc1cccc(F)c1 [Compound 4, reference compound] | – | no fungicidal activity | 0 | 0 | –
CSc1cccc(N(Cc2cccc([N+](=O)[O-])c2)S(C)(=O)=O)c1 [Compound 6, N-(3-nitrobenzyl)-N-(3'-methylthiophenyl)-methane sulfonamide] | – | activity comparable to that of Compound 1 | – | 81 | Fungicidal Efficacy - % Control, TLB (Tomato Late Blight) [3]: 75%
CCCN(CCC)Cc1cccc([N+](=O)[O-])c1 [Compound 1, N,N-Dipropyl-3-Nitro-Benzylamine] | – | unexpected fungicidal activity | 86 | 60 | % control, powdery mildew (repeat test) ([1]; 16 ppm): 0%; % control, powdery mildew (repeat test) ([1]; 40 ppm): 56%; % control, powdery mildew (repeat test) ([1]; 100 ppm): 83%; fungicidal activity on Bean Powdery Mildew (in words) [1]: unexpected fungicidal activity; % control, Tomato Early Blight (repeat test) ([2]; 16 ppm): 90%; % control, Tomato Early Blight (repeat test) ([2]; 40 ppm): 90%; % control, Tomato Early Blight (repeat test) ([2]; 100 ppm): 93%; fungicidal activity on Tomato Early Blight (in words) [2]: unexpected fungicidal activity
CS(=O)(=O)c1cccc(NCc2cccc([N+](=O)[O-])c2)c1 [Compound 7] | – | activity comparable to that of Compound 1 | – | – | Fungicidal Efficacy - % Control, TLB (Tomato Late Blight) [3]: 75%
CCCN(CCC)Cc1ccc([N+](=O)[O-])cc1 [Compound 3, N,N-dipropyl-4-nitro-benzylamine, reference compound] | antimalarial activity | no fungicidal activity | 0 | 0 | –
CCN(CC)Cc1cccc([N+](=O)[O-])c1 [Compound 2, N,N-diethyl-3-nitro-benzylamine, reference compound] | antimalarial activity | – | 0 | 0 | fungicidal activity on Bean Powdery Mildew (in words) [1]: no fungicidal activity; fungicidal activity on Tomato Early Blight (in words) [2]: no fungicidal activity
CSc1cccc(NCc2cccc([N+](=O)[O-])c2)c1 [Compound 5, N-(3'-methylthiophenyl)-3-nitro-benzylamine] | – | activity comparable to that of Compound 1 | 79 | – | –
